# Results from patent US20210255193A1, “LYSINE REACTIVE PROBES AND USES THEREOF” (The Scripps Research Institute, priority 2017, published 2021).
# Experiments:
# [1] = target: T1, UBA6 Ubiquitin-like modifier-activating enzyme 6 (Homo sapiens, UniProt A0AVT1); assay: competitive isoTOP-ABPP; type: binding; conditions: for R value (DMSO/fragment) for probe 1 labeling: A0AVT1_K409
# T1 construct: isoTOP-ABPP experiments performed in cell lysates (in vitro); endogenous in cells; host or cells: MDA-MB-231 soluble lysate
# T1 sequence (A0AVT1 1-1052): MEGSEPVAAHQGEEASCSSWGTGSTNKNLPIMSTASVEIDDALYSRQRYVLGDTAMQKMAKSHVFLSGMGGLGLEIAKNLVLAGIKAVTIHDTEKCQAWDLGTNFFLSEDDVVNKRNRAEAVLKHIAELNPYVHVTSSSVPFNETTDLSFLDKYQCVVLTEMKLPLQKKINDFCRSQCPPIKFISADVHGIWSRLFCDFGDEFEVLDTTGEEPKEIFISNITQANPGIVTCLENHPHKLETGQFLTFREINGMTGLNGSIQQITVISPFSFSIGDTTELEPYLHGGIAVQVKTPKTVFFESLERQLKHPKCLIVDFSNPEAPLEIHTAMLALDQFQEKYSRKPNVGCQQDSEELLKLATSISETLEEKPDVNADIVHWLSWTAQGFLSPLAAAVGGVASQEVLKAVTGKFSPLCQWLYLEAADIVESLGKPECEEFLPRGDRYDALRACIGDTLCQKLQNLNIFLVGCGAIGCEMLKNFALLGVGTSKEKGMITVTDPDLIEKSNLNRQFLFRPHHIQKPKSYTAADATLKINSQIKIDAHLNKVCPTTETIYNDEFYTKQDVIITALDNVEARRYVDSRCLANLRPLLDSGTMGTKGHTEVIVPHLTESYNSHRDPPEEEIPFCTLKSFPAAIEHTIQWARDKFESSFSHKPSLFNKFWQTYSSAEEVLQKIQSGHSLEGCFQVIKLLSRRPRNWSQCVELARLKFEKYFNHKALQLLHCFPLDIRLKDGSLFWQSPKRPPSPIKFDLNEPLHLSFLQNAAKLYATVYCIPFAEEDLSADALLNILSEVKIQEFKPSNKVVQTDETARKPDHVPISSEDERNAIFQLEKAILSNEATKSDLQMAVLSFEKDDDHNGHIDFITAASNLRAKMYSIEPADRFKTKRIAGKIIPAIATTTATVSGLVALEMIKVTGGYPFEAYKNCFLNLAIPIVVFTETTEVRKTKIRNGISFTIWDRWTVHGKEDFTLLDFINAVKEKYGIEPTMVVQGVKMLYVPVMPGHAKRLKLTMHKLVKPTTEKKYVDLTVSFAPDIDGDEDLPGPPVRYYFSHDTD
# How it was run: (§1)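 Lysine engagement is reported as R, the MS1 peak-area ratio of heavy-tagged DMSO to light-tagged compound samples. Final fragment concentrations were 50 μM for activated esters and 100 μM for guanidinylating agents; STP-alkyne probe 0.1 mM, 1 h.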
# [2] = target: T2, TARDBP TAR DNA-binding protein 43 (Homo sapiens, UniProt Q13148); assay: competitive isoTOP-ABPP; conditions: for R value (DMSO/fragment) for probe 1 labeling: Q13148_K114; for R value (DMSO/fragment) for probe 1 labeling / isoTOP-ABPP reactivity ratio at lysine Q13148_K114 / isoTOP-ABPP ratio (R) at liganded lysine Q13148_K114: 50 uM, in vitro; for R value (DMSO/fragment) for probe 1 labeling / isoTOP-ABPP reactivity ratio at lysine Q13148_K114: 231 sol; for isoTOP-ABPP ratio (R) at liganded lysine Q13148_K114: sol, 231
# T2 construct: isoTOP-ABPP experiments performed in cell lysates (in vitro); endogenous in cells; host or cells: soluble proteome of human cancer cell lines (MDA-MB-231, Ramos, Jurkat)
# T2 sequence (Q13148 whole entry, the tested form may be a part): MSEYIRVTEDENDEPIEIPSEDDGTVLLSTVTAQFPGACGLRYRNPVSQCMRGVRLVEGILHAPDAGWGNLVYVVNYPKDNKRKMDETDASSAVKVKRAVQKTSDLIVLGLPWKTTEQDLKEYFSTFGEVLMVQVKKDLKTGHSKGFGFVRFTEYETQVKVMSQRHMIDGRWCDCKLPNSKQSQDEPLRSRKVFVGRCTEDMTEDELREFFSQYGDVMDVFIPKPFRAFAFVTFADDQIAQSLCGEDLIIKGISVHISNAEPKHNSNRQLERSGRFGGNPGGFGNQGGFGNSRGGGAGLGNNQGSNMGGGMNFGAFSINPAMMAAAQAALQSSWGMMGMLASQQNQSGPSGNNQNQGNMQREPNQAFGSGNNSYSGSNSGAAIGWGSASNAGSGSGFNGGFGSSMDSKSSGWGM
# How it was run: as §1
smiles,measurement,setting,value
"O=C(CCc1cn(-c2ccccc2)nc1-c1ccccc1)Oc1c(F)c(F)c(F)c(F)c1F [fragment 19, Pentafluorophenyl 3-(1,3-diphenyl-1H-pyrazol-4-yl)propanoate]",R value (DMSO/fragment) for probe 1 labeling,"[1]; 50 uM, 231 sol, in vitro",1.5
"O=C(Oc1c(F)c(F)c(F)c(F)c1F)c1cc(C(F)(F)F)cc(C(F)(F)F)c1 [fragment 21, Pentafluorophenyl 3,5-bis(trifluoromethyl)benzoate]",R value (DMSO/fragment) for probe 1 labeling,[2],0.9
"Cn1cc(CC(=O)Oc2c(F)c(F)c(F)c(F)c2F)c2ccccc21 [fragment 22, Pentafluorophenyl 2-(1-methyl-1H-indol-3-yl)acetate]",R value (DMSO/fragment) for probe 1 labeling,[2],0.8
same,R value (DMSO/fragment) for probe 1 labeling,"[1]; 50 uM, 231 sol, in vitro",1.6
"COc1cc(CCC(=O)Oc2c(F)c(F)c(F)c(F)c2F)cc(OC)c1OC [fragment 23, Pentafluorophenyl 3-(3,4,5-trimethoxyphenyl)propanoate]",R value (DMSO/fragment) for probe 1 labeling,"[1]; 50 uM, 231 sol, in vitro",1.3
"O=C(Oc1c(F)c(F)c(F)c(F)c1F)C1CCN(C(=O)OCc2ccccc2)CC1 [fragment 24, 1-Benzyl 4-(pentafluorophenyl) piperidine-1,4-dicarboxylate]",isoTOP-ABPP reactivity ratio at lysine Q13148_K114,[2],1.0
"O=C(Oc1c(F)c(F)c(F)c(F)c1F)c1ccc2ccccc2n1 [fragment 25, Pentafluorophenyl quinoline-2-carboxylate]",isoTOP-ABPP reactivity ratio at lysine A0AVT1_K409,"[1]; 50 uM, 231 sol, in vitro",1.4
"O=C(CCc1cn(-c2ccccc2)nc1-c1ccccc1)Oc1ccc([N+](=O)[O-])cc1[N+](=O)[O-] [fragment 29, 2,4-Dinitrophenyl 3-(1,3-diphenyl-1H-pyrazol-4-yl)propanoate]",isoTOP-ABPP reactivity ratio at lysine Q13148_K114,[2],1.1
"O=C(CCc1coc2cc(F)ccc2c1=O)Oc1ccc([N+](=O)[O-])cc1[N+](=O)[O-] [fragment 36, 2,4-Dinitrophenyl 3-(7-fluoro-4-oxo-4H-chromen-3-yl)propanoate]",isoTOP-ABPP ratio (R) at liganded lysine Q13148_K114,[2],1.2
"O=C(Oc1ccc([N+](=O)[O-])cc1[N+](=O)[O-])c1ccc(-c2ccccc2)cc1 [fragment 37, 2,4-Dinitrophenyl [1,1′-biphenyl]-4-carboxylate]",isoTOP-ABPP ratio (R) at liganded lysine Q13148_K114,[2],1.3
"O=C(Oc1ccc([N+](=O)[O-])cc1[N+](=O)[O-])c1ccc(Oc2ccccc2)cc1 [fragment 39, 2,4-Dinitrophenyl 4-phenoxybenzoate]",isoTOP-ABPP ratio (R) at liganded lysine Q13148_K114,[2],0.9
"CC(C)(C)OC(=O)NCCCC(=O)Oc1ccc([N+](=O)[O-])cc1[N+](=O)[O-] [fragment 41, 2,4-Dinitrophenyl 4-((tert-butoxycarbonyl)amino)butanoate]",isoTOP-ABPP ratio (R) at liganded lysine A0AVT1_K409,"[1]; 50 uM, in vitro, sol, 231",6.6
"N#Cc1ccc(C(=O)Oc2ccc([N+](=O)[O-])cc2[N+](=O)[O-])cc1 [fragment 44, 2,4-Dinitrophenyl 4-cyanobenzoate]","isoTOP-ABPP ratio, lysine Q13148_K114",[2]; 50 uM_231_sol_in vitro,20.0
"O=C(CCc1ccc2c(c1)OCO2)Oc1ccc([N+](=O)[O-])cc1[N+](=O)[O-] [fragment 45, 2,4-Dinitrophenyl 3-(benzo[d][1,3]dioxol-5-yl)propanoate]","isoTOP-ABPP ratio, lysine Q13148_K114",[2]; 50 uM_231_sol_in vitro,20.0
same,"isoTOP-ABPP ratio, lysine A0AVT1_K409",[1]; 50 uM_231_sol_in vitro,6.3
"COC(=O)NC(=NC(=O)OCC1c2ccccc2-c2ccccc21)n1cccn1 [fragment 49, N-Methoxycarbonyl-N′-9-fluorenylmethoxycarbonyl-pyrazole-1-carboxamidine]","isoTOP-ABPP ratio, lysine Q13148_K114",[2]; 100 uM_231_sol_in vitro,20.0
"CC(C)(C)OC(=O)N=C(NC(=O)OC(C)(C)C)n1cccn1 [fragment 50, reference compound]","isoTOP-ABPP ratio, lysine Q13148_K114",[2]; 100 uM_231_sol_in vitro,1.2
